Patent US11787799B2 (priority 2015, dated 2023)
Several values for one entry are separate records, joined by “and”; a condition that tells them apart may be missing. Identical values can stand only once. Like-named read-outs stand apart in the source and are kept apart here.

Columns and labels:
Echovirus 11 = test: microbe, parasite or virus in culture; format: cell-based; conditions: read-out: EC50 ECHO11
Coxsackievirus B3-H3 = test: microbe, parasite or virus in culture; format: cell-based; conditions: read-out: EC50 CVB3-H3
Chikungunya = format: cell-based, chikungunya virus
Influenza A H1N1 = test: microbe, parasite or virus in culture; format: cell-based; conditions: read-out: EC50 Influenza A H1N1
Echovirus 30 = test: microbe, parasite or virus in culture; format: cell-based; conditions: read-out: EC50 ECHO30
Powassan = format: cell-based, Powassan virus
[1] = test system: RSV (resp syncitial virus); test: microbe, parasite or virus in culture; format: cell-based; conditions: read-out: EC50 RSV
Japanese Encephalitis = format: cell-based
Coxsackievirus B4 = test: microbe, parasite or virus in culture; format: cell-based; conditions: read-out: EC50 CVB4
Echovirus 9 = test: microbe, parasite or virus in culture; format: cell-based; conditions: read-out: EC50 ECHO09
SARS Coronavirus = format: cell-based
Coxsackievirus B5 = test: microbe, parasite or virus in culture; format: cell-based; conditions: read-out: EC50 CVB5
Echovirus 7 = test: microbe, parasite or virus in culture; format: cell-based; conditions: read-out: EC50 ECHO07
Yellow Fever Virus = test: microbe, parasite or virus in culture; format: cell-based; conditions: read-out: EC50 Yellow Fever Virus
[2] = test system: Enterovirus D68/US/Mo/14-18949; test: Antiviral assay, Enterovirus D68 strain US/Mo/14-18949 in RD cells; format: cell-based
Rabies = format: cell-based, rabies virus
Poliovirus 3 = test: microbe, parasite or virus in culture; format: cell-based; conditions: read-out: EC50 PV3
[3] = test system: Enterovirus D68/US/KY/14-18953; test: Antiviral assay, Enterovirus D68 strain US/KY/14-18953 in RD cells; format: cell-based
Echovirus 25 = test: microbe, parasite or virus in culture; format: cell-based; conditions: read-out: EC50 ECHO25
BHK-21 = conditions: read-out: CC50 (Rabies test)
Poliovirus 1 = test: microbe, parasite or virus in culture; format: cell-based; conditions: read-out: EC50 PV1
Enterovirus 71 = test: microbe, parasite or virus in culture; format: cell-based; conditions: read-out: EC50 EV71
Vero = conditions: read-out: CC50 (Yellow Fever Virus test)
Enterovirus D68/Fermon = test: Antiviral assay, Enterovirus D68 strain Fermon in RD cells; format: cell-based
Venezuelan Encephalitis = format: cell-based, Venezuelan encephalitis virus
Echovirus 6 = test: microbe, parasite or virus in culture; format: cell-based; conditions: read-out: EC50 ECHO06
BHK = conditions: read-out: CC50 (Powassan test)
Measles = test: microbe, parasite or virus in culture; format: cell-based; conditions: read-out: EC50 Measles
Coxsackievirus A9 = test: microbe, parasite or virus in culture; format: cell-based; conditions: read-out: EC50 COX A9
Coxsackievirus B2 = test: microbe, parasite or virus in culture; format: cell-based; conditions: read-out: EC50 CVB2
Coxsackievirus B1 = test: microbe, parasite or virus in culture; format: cell-based; conditions: read-out: EC50 CVB1
Punta Toro virus = test: microbe, parasite or virus in culture; format: cell-based; conditions: read-out: EC50 Punta Toro virus
Rift Valley virus = test: organism not typed; format: cell-based; conditions: read-out: EC50 Rift Valley virus
[4] = read-out: CC50 (Rift Valley virus test), with Rift Valley virus MP-12 test
[5] = read-out: CC50 (SARS Coronavirus test), with SARS Coronavirus Urbani test

## CC(C)n1ncc2c(C(=O)Nc3ccccc3F)cc(-c3cccs3)nc21 [JX-001]
Echovirus 11
  EC50: 1500 ± 400 nM
Coxsackievirus B3-H3
  EC50: 1400 ± 600 nM
Chikungunya
  EC50: 310 nM
Influenza A H1N1
  EC50: > 100000 nM
Echovirus 30
  EC50: 1200 nM
Powassan
  EC50: > 33000 nM
[1]
  EC50: 3400 nM
Japanese Encephalitis
  EC50: > 14 nM
Coxsackievirus B4
  EC50: 2300 nM
Echovirus 9
  EC50: 2100 ± 1200 nM
SARS Coronavirus
  EC50: 3200 nM
Coxsackievirus B5
  EC50: 2300 nM
Echovirus 7
  EC50: 2400 nM
Yellow Fever Virus
  EC50: > 4800 nM
Vero 76; [4]
  CC50: 50000 nM
Vero 76; [5]
  CC50: 3300 nM
[2]
  EC50: 330 ± 50 nM
Rabies
  EC50: > 100000 nM
Poliovirus 3
  EC50: 7000 nM
[3]
  EC50: 500 ± 170 nM
Echovirus 25
  EC50: 3000 nM
HeLa-RW cells
  CC50: 12500 nM
BHK-21
  CC50: > 100000 nM
Poliovirus 1
  EC50: 7000 nM
Enterovirus 71
  EC50: 1800 ± 500 nM
Vero
  CC50: 4800 nM
RD cells
  CC50: 200000 nM
Enterovirus D68/Fermon
  EC50: 350 ± 50 nM
MA-104
  CC50: 4700 nM
Venezuelan Encephalitis
  EC50: > 980 nM
MDCK
  CC50: > 100000 nM
Echovirus 6
  EC50: 2300 ± 900 nM
BHK
  CC50: > 33000 nM
Measles
  EC50: > 4000 nM
Coxsackievirus A9
  EC50: 2600 ± 900 nM
Coxsackievirus B2
  EC50: 2800 ± 400 nM
Coxsackievirus B1
  EC50: 2400 ± 200 nM
Punta Toro virus
  EC50: > 39000 nM
Rift Valley virus
  EC50: > 50000 nM

## CC(C)n1ncc2c(C(=O)Nc3ccc(F)cc3)cc(-c3cccs3)nc21 [JX-017]
Coxsackievirus B3-H3
  EC50: 700 ± 200 nM
Chikungunya
  EC50: 290 nM
Influenza A H1N1
  EC50: > 100000 nM
Echovirus 30
  EC50: 500 nM
Powassan
  EC50: 32000 nM
[1]
  EC50: 69000 nM
Japanese Encephalitis
  EC50: > 430 nM
Coxsackievirus B4
  EC50: 800 nM
Echovirus 9
  EC50: 600 nM
SARS Coronavirus
  EC50: > 10000 nM
LLC cells
  CC50: > 200000 nM
Coxsackievirus B5
  EC50: 1000 ± 100 nM
Echovirus 7
  EC50: 1300 ± 200 nM
Yellow Fever Virus
  EC50: > 9900 nM
Vero 76; [4]
  CC50: 52000 nM
Vero 76; [5]
  CC50: 10000 nM
[2]
  EC50: 350 ± 60 nM
Rabies
  EC50: > 100000 nM
Poliovirus 3
  EC50: > 25000 nM
[3]
  EC50: 500 ± 170 nM
Echovirus 25
  EC50: 1200 nM
HeLa-RW cells
  CC50: > 200000 nM
BHK-21
  CC50: > 100000 nM
Poliovirus 1
  EC50: > 25000 nM
Enterovirus 71
  EC50: 900 ± 300 nM
Vero
  CC50: 9900 nM
RD cells
  CC50: > 200000 nM
Enterovirus D68/Fermon
  EC50: 330 ± 60 nM
MA-104
  CC50: > 100000 nM
Venezuelan Encephalitis
  EC50: 320 nM
MDCK
  CC50: > 100000 nM
Echovirus 6
  EC50: 1000 ± 400 nM
BHK
  CC50: 37000 nM
Measles
  EC50: 8900 nM
Coxsackievirus A9
  EC50: 900 ± 500 nM
Coxsackievirus B2
  EC50: 1000 ± 300 nM
Coxsackievirus B1
  EC50: 900 ± 300 nM
Punta Toro virus
  EC50: 12000 nM
Rift Valley virus
  EC50: > 52000 nM

## CC(C)n1ncc2c(C(=O)Nc3cccc(S(N)(=O)=O)c3)cc(-c3cccs3)nc21 [JX-025]
Coxsackievirus B3-H3
  EC50: 300 nM
Chikungunya
  EC50: 300 nM
Influenza A H1N1
  EC50: > 100000 nM
Echovirus 30
  EC50: 600 nM
Powassan
  EC50: > 8900 nM
[1]
  EC50: > 100000 nM
Japanese Encephalitis
  EC50: 310 nM
Coxsackievirus B4
  EC50: 1100 ± 200 nM
Echovirus 9
  EC50: 1200 nM
SARS Coronavirus
  EC50: > 7200 nM
LLC cells
  CC50: 25000 nM
Coxsackievirus B5
  EC50: 1200 nM
Echovirus 7
  EC50: 2100 ± 600 nM
Yellow Fever Virus
  EC50: > 4800 nM
Vero 76; [4]
  CC50: > 100000 nM
Vero 76; [5]
  CC50: 7200 nM
[2]
  EC50: 60 ± 20 nM
Rabies
  EC50: > 12200 nM
Poliovirus 3
  EC50: 5000 nM
[3]
  EC50: 150 nM
Echovirus 25
  EC50: 1100 nM
HeLa-RW cells
  CC50: 50000 nM
BHK-21
  CC50: 12200 nM
Poliovirus 1
  EC50: 5000 nM
Enterovirus 71
  EC50: 1300 ± 100 nM
Vero
  CC50: 4800 nM
RD cells
  CC50: 50000 nM
Enterovirus D68/Fermon
  EC50: 100 nM and 150 nM
MA-104
  CC50: > 100000 nM
Venezuelan Encephalitis
  EC50: > 880 nM
MDCK
  CC50: > 100000 nM
Echovirus 6
  EC50: 1100 ± 300 nM
BHK
  CC50: 8900 nM
Measles
  EC50: 7100 nM
Coxsackievirus A9
  EC50: 2100 ± 700 nM
Coxsackievirus B2
  EC50: 1200 nM
Coxsackievirus B1
  EC50: 1200 nM
Punta Toro virus
  EC50: 38000 nM
Rift Valley virus
  EC50: > 100000 nM

## CC(C)n1ncc2c(C(=O)Nc3ccc(F)cc3)cc(-c3ccsc3)nc21 [JX-030]
Coxsackievirus B3-H3
  EC50: 1300 ± 100 nM
Chikungunya
  EC50: > 1300 nM
Influenza A H1N1
  EC50: 10700 nM
Echovirus 30
  EC50: 600 nM
Powassan
  EC50: > 85800 nM
[1]
  EC50: 7000 nM
Japanese Encephalitis
  EC50: 3400 nM
Coxsackievirus B4
  EC50: 2200 ± 100 nM
Echovirus 9
  EC50: 1900 nM
SARS Coronavirus
  EC50: 4400 nM
LLC cells
  CC50: > 100000 nM
Coxsackievirus B5
  EC50: 1200 ± 100 nM
Echovirus 7
  EC50: 2600 ± 100 nM
Yellow Fever Virus
  EC50: > 11100 nM
Vero 76; [4]
  CC50: 169000 nM
Vero 76; [5]
  CC50: 18700 nM
[2]
  EC50: 300 nM
Rabies
  EC50: 88400 nM
Poliovirus 3
  EC50: > 25000 nM
[3]
  EC50: 600 nM
Echovirus 25
  EC50: 900 nM
HeLa-RW cells
  CC50: 25000 nM
BHK-21
  CC50: > 260000 nM
Poliovirus 1
  EC50: > 25000 nM
Enterovirus 71
  EC50: 1400 ± 200 nM
Vero
  CC50: 11100 nM
RD cells
  CC50: 25000 nM
MA-104
  CC50: 67600 nM
Venezuelan Encephalitis
  EC50: > 9400 nM
MDCK
  CC50: 17700 nM
Echovirus 6
  EC50: 1200 ± 100 nM
BHK
  CC50: > 85800 nM
Measles
  EC50: 20500 nM
Coxsackievirus A9
  EC50: 1700 ± 100 nM
Coxsackievirus B2
  EC50: 1600 ± 100 nM
Coxsackievirus B1
  EC50: 1600 ± 100 nM
Punta Toro virus
  EC50: > 78000 nM
Rift Valley virus
  EC50: 140000 nM

## CC(C)n1ncc2c(C(=O)Nc3ccccn3)cc(-c3cccs3)nc21 [JX-040]
Echovirus 11
  EC50: 500 nM
Coxsackievirus B3-H3
  EC50: 600 nM
Echovirus 30
  EC50: < 400 nM
Coxsackievirus B4
  EC50: 500 nM
LLC cells
  CC50: > 200000 nM
Coxsackievirus B5
  EC50: 600 nM
Echovirus 7
  EC50: 600 nM
[2]
  EC50: 170 ± 30 nM
Poliovirus 3
  EC50: > 10000 nM
[3]
  EC50: 270 ± 60 nM
Echovirus 25
  EC50: 600 nM
HeLa-RW cells
  CC50: > 200000 nM
Poliovirus 1
  EC50: > 10000 nM
Enterovirus 71
  EC50: 500 ± 100 nM
RD cells
  CC50: > 200000 nM
Echovirus 6
  EC50: 400 nM
Coxsackievirus A9
  EC50: 600 nM
Coxsackievirus B2
  EC50: 600 nM
Coxsackievirus B1
  EC50: 600 nM
